From ChEMBL document CHEMBL4334431, “Gramicidin S-inspired antimicrobial cyclodextrin to disrupt gram-negative and gram-positive bacterial membranes” (Medchemcomm, 2019)
Converted amounts (≈) assume the structure as drawn.

How the values were obtained:
Escherichia coli [1] = assay: Antimicrobial activity against ESBL-producing Escherichia coli assessed as bacterial growth inhibition after 20 hrs by liquid microdilution method; type: functional
Escherichia coli [2] = assay: Antimicrobial activity against […] at sub-MIC treated by resistant development assay; type: functional; details: K-12 substr. W3110
Staphylococcus aureus [3] = assay: Antibacterial activity against Staphylococcus aureus FDA 209P at sub-MIC treated over 11 serial passages by resistant development assay; type: functional
[4] = Partition coefficient, log P of compound; type: physicochemical; details: octanol/water
[5] = Haemolytic activity in rabbit RBCs at 50 uM relative to control; type: ADME, cell-based, Oryctolagus cuniculus, Erythrocyte; details: rabbit red blood cells (erythrocytes), read-out: Activity
Salmonella typhimurium = assay: Antibacterial activity against Salmonella typhimurium LT2 assessed as bacterial growth inhibition after 20 hrs by liquid microdilution method; type: functional, Salmonella enterica subsp. enterica serovar Typhimurium; details: Salmonella enterica, LT2, 20 h
Escherichia coli [6] = assay: Antimicrobial activity against carbapenem-resistant Escherichia coli assessed as bacterial growth inhibition after 20 hrs by liquid microdilution method; type: functional
Pseudomonas aeruginosa [7] = assay: Antibacterial activity against Pseudomonas aeruginosa PAO1 assessed as bacterial growth inhibition after 20 hrs by liquid microdilution method; type: functional; details: PAO1, 20 h
Bacillus subtilis = assay: Antibacterial activity against Bacillus subtilis 168 assessed as bacterial growth inhibition after 20 hrs by liquid microdilution method; type: functional; details: Bacillus subtilis, 168, 20 h
Erythrocyte = assay: Haemolytic activity in rabbit RBCs at 10 times MIC; type: ADME, cell-based, Oryctolagus cuniculus
Pseudomonas aeruginosa [8] = assay: Antibacterial activity against carbapenem-reistant Pseudomonas aeruginosa PAO1 assessed as bacterial growth inhibition after 20 hrs by liquid microdilution method; type: functional; details: PAO1, 20 h
Staphylococcus aureus [9] = assay: Antibacterial activity against Staphylococcus aureus FDA 209P assessed as bacterial growth inhibition after 20 hrs by liquid microdilution method; type: functional
Escherichia coli [10] = assay: Antibacterial activity against Escherichia coli K12 W3110 assessed as bacterial growth inhibition after 20 hrs by liquid microdilution method; type: functional; details: K-12 substr. W3110, 20 h

SMILES: CCC(=O)O[C@@H]1[C@@H](OC(=O)CC)[C@H]2O[C@H]3[C@H](OC(=O)CC)[C@@H](OC(=O)CC)[C@@H](O[C@H]4[C@H](OC(=O)CC)[C@@H](OC(=O)CC)[C@@H](O[C@H]5[C@H](OC(=O)CC)[C@@H](OC(=O)CC)[C@@H](O[C@H]6[C@H](OC(=O)CC)[C@@H](OC(=O)CC)[C@@H](O[C@H]7[C@H](OC(=O)CC)[C@@H](OC(=O)CC)[C@@H](O[C@@H]1[C@@H](Cn1cc(CN)nn1)O2)O[C@@H]7Cn1cc(CN)nn1)O[C@@H]6Cn1cc(CN)nn1)O[C@@H]5Cn1cc(CN)nn1)O[C@@H]4Cn1cc(CN)nn1)O[C@@H]3Cn1cc(CN)nn1
- MIC (Escherichia coli [1]): 5 µM (≈ 10.6 µg/mL)
- MIC (Escherichia coli [2]): 3 to 6 µM (≈ 6.38 to 12.8 µg/mL)
- MIC (Staphylococcus aureus [3]): 6 µM (≈ 12.8 µg/mL)
- logP [4]: -0.89
- hemolysis at 50 µM [5]: 3%
- MIC (Salmonella typhimurium): 6 µM (≈ 12.8 µg/mL)
- MIC (Escherichia coli [6]): 5 µM (≈ 10.6 µg/mL)
- MIC (Pseudomonas aeruginosa [7]): 3 µM (≈ 6.38 µg/mL)
- MIC (Bacillus subtilis): 3 µM (≈ 6.38 µg/mL)
- Activity (Erythrocyte): Non-Toxic
- MIC (Pseudomonas aeruginosa [8]): 5 µM (≈ 10.6 µg/mL)
- MIC (Staphylococcus aureus [9]): 6 µM (≈ 12.8 µg/mL)
- MIC (Escherichia coli [10]): 3 µM (≈ 6.38 µg/mL)
